In ChEMBL document CHEMBL3132769, “Fragment growing to retain or alter the selectivity of anchored kinase hinge-binding fragments” (Medchemcomm, 2014) one finds inhibition data, which are given here for nine compounds.

Experiment [1] has as its target T1, Aurora kinase A (Homo sapiens) (UniProt O14965).
T1 sequence (whole entry): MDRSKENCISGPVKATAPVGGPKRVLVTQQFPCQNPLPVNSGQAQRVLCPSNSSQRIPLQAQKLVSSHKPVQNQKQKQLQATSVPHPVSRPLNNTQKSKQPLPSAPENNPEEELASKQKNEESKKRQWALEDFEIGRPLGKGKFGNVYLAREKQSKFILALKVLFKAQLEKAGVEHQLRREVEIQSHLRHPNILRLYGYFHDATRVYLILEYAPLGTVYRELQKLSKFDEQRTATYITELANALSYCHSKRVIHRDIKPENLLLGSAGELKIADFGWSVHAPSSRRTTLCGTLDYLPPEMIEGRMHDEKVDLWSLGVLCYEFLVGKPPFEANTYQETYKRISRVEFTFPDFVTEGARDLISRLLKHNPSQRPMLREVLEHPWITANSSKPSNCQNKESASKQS
In words: Inhibition of human full length AurA expressed in baculovirus assessed as substrate phosphorylation using fluorescence-labelled peptides as substrate at 0.2 uM after 90 mins by microfluidic peptide phosphorylation assay.

Experiment [2] deals with Serine/threonine-protein kinase MARK1 (Homo sapiens) (UniProt Q9P0L2). As to the kind of experiment: Inhibition of human full length MARK1 expressed in baculovirus assessed as substrate phosphorylation using fluorescence-labelled peptides as substrate at 0.2 uM after 90 mins by microfluidic peptide phosphorylation assay.
Chain of Serine/threonine-protein kinase MARK1 (Homo sapiens) (Q9P0L2 whole entry, looked up): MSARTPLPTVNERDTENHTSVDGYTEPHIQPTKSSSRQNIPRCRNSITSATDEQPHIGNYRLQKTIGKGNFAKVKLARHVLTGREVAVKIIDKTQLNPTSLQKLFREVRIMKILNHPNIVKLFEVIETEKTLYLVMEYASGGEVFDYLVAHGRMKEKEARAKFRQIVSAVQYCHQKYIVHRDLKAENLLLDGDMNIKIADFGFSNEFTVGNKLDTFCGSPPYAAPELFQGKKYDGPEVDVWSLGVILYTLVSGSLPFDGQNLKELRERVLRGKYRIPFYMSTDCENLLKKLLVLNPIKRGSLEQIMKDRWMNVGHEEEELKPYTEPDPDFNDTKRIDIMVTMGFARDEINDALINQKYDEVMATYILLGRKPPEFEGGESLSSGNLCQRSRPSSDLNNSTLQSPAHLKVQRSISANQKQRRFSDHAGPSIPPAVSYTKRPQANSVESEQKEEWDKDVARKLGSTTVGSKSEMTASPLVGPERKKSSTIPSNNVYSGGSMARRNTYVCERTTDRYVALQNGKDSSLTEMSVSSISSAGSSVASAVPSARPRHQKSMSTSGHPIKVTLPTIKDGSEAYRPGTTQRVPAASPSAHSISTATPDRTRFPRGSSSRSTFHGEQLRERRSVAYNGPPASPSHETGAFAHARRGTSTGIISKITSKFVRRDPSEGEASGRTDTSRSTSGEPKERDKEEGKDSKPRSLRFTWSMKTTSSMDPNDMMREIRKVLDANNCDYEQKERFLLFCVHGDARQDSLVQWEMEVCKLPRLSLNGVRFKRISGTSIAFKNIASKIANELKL
The target of experiment [3] is T2, Serine/threonine-protein kinase Sgk1 (Homo sapiens) (UniProt O00141).
T2 sequence (whole entry): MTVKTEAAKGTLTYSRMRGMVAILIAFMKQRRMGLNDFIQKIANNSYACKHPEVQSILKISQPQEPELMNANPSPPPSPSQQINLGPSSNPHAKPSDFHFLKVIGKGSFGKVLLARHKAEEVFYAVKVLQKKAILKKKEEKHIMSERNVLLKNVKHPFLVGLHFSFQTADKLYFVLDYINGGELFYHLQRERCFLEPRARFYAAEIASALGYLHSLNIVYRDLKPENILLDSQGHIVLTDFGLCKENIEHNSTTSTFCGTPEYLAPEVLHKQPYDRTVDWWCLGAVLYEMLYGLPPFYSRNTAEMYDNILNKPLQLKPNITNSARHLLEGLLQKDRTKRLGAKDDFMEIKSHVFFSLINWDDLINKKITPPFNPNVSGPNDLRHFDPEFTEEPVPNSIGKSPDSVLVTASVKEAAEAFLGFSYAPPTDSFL
Conditions: 0.1 uM.
Description: Inhibition of human truncated SGK1 expressed in baculovirus assessed as substrate phosphorylation using fluorescence-labelled peptides as substrate at 0.1 uM after 90 mins by microfluidic peptide phosphorylation assay

Experiment [4] concerns the target Protein kinase C delta type (Homo sapiens) (UniProt Q05655). As to the kind of experiment: Inhibition of human truncated PKC delta expressed in baculovirus assessed as substrate phosphorylation using fluorescence-labelled peptides as substrate at 420 uM after 90 mins by microfluidic peptide phosphorylation assay.
The target in experiment [5] is T3, MAP kinase-activated protein kinase 5 (Homo sapiens) (UniProt Q8IW41).
T3 sequence (whole entry): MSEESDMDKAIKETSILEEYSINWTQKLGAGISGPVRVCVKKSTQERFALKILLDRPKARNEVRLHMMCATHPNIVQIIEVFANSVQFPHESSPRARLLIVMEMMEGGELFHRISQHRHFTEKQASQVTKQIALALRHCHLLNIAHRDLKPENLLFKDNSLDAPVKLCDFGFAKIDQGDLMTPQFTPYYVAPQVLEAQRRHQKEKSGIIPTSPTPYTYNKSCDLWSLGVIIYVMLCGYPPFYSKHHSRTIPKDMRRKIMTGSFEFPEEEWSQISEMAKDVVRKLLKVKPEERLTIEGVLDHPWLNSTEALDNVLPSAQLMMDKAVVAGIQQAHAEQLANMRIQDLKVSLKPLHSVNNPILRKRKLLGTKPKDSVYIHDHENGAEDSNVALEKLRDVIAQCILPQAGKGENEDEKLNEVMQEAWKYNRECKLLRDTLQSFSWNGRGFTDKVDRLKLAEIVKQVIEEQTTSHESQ
As to the kind of experiment: Inhibition of human full length PRAK expressed in baculovirus assessed as substrate phosphorylation using fluorescence-labelled peptides as substrate at 9 uM after 90 mins by microfluidic peptide phosphorylation assay.

The target of experiment [6] is Insulin receptor (Homo sapiens) (UniProt P06213). In words: Inhibition of human INSR catalytic domain expressed in baculovirus assessed as substrate phosphorylation using fluorescence-labelled peptides as substrate at 8 uM after 90 mins by microfluidic peptide phosphorylation assay.
Experiment [7] has as its target T4, cGMP-dependent protein kinase 1 (Homo sapiens) (UniProt Q13976).
T4 sequence (whole entry): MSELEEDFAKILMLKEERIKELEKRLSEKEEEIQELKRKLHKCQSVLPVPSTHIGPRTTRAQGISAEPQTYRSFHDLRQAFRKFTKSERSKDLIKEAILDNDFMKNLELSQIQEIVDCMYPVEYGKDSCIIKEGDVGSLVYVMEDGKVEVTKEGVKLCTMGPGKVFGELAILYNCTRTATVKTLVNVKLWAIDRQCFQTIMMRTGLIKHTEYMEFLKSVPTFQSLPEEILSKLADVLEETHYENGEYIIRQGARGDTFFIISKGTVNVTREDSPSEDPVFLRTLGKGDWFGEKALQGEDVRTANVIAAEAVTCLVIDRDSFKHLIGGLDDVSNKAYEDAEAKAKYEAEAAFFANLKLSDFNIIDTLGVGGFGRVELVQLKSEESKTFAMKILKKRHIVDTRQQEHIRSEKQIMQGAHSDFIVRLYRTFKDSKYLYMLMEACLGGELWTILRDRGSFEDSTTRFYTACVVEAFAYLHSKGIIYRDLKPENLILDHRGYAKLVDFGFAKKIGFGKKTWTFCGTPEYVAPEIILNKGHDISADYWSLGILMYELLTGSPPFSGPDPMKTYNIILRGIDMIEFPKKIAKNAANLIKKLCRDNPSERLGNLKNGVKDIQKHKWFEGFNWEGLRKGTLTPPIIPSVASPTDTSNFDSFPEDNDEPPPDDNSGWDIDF
As to the kind of experiment: Inhibition of human full length PKG-1a expressed in baculovirus assessed as substrate phosphorylation using fluorescence-labelled peptides as substrate at […] after 90 mins by microfluidic peptide phosphorylation assay.

The target of experiment [8] is Calcium/calmodulin-dependent protein kinase type II subunit gamma (Homo sapiens) (UniProt Q13555). In words: Inhibition of human CAMK2 gamma catalytic domain expressed in baculovirus assessed as substrate phosphorylation using fluorescence-labelled peptides as substrate at 0.06 uM after 90 mins by microfluidic peptide phosphorylation assay.
Chain of Calcium/calmodulin-dependent protein kinase type II subunit gamma (Homo sapiens) (Q13555 whole entry, the tested form may be a part): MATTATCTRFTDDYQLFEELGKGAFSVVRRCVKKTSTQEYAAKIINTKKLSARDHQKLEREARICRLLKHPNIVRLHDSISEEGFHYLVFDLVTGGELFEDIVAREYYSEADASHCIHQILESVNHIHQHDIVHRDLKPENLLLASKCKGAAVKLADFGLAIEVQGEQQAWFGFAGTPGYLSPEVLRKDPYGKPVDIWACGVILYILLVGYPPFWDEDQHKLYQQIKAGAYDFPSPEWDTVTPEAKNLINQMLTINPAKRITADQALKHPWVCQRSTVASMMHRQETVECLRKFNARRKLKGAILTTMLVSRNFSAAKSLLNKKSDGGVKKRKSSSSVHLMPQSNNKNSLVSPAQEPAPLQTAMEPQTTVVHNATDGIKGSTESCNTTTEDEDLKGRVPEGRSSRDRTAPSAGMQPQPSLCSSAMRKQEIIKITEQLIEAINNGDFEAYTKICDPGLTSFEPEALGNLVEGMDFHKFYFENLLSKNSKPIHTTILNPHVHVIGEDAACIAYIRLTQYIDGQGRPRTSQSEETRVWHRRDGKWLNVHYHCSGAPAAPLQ
Experiment [9] concerns the target Tyrosine-protein kinase BTK (Homo sapiens) (UniProt Q06187). As to the kind of experiment: Inhibition of human full length BTK expressed in baculovirus assessed as substrate phosphorylation using fluorescence-labelled peptides as substrate at 0.06 uM after 90 mins by microfluidic peptide phosphorylation assay.
Experiment [10] has as its target Protein kinase C eta type (Homo sapiens) (UniProt P24723). In words: Inhibition of human truncated PKC eta expressed in baculovirus assessed as substrate phosphorylation using fluorescence-labelled peptides as substrate at 2 uM after 90 mins by microfluidic peptide phosphorylation assay.
Experiment [11] deals with Serine/threonine-protein kinase pim-1 (Homo sapiens) (UniProt P11309). As to the kind of experiment: Inhibition of human full length PIM1 expressed in baculovirus assessed as substrate phosphorylation using fluorescence-labelled peptides as substrate at 70 uM after 90 mins by microfluidic peptide phosphorylation assay.
Chain of Serine/threonine-protein kinase pim-1 (Homo sapiens) (P11309 whole entry, looked up): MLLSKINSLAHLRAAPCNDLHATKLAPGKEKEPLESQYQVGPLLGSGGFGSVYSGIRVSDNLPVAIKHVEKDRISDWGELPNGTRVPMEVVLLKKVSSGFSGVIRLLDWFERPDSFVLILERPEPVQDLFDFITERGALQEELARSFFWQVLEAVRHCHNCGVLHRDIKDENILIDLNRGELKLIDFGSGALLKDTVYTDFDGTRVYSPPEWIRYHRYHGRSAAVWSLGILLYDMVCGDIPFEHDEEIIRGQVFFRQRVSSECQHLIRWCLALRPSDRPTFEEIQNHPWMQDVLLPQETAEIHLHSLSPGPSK

Chain of Protein kinase C delta type (Homo sapiens) (Q05655 whole entry, looked up, the tested form may be a part): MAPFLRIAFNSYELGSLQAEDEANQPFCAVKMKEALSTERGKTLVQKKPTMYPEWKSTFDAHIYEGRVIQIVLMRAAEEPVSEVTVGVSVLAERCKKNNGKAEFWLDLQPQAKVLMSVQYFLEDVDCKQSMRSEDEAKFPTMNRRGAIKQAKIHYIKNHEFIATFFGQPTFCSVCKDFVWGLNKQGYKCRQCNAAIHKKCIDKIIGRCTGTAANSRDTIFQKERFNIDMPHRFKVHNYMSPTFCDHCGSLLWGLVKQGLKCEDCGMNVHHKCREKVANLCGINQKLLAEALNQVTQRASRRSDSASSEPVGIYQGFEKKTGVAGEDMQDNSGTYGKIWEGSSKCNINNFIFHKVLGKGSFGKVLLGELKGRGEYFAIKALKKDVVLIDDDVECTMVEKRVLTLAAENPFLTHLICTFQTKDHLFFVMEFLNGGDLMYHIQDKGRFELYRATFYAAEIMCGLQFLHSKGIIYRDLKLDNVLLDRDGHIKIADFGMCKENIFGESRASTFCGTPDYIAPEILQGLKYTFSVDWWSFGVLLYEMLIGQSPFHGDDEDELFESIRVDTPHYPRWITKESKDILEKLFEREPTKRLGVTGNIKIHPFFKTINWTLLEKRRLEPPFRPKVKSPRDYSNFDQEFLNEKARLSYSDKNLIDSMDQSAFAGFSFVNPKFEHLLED
Chain of Tyrosine-protein kinase BTK (Homo sapiens) (Q06187 whole entry, the tested form may be a part): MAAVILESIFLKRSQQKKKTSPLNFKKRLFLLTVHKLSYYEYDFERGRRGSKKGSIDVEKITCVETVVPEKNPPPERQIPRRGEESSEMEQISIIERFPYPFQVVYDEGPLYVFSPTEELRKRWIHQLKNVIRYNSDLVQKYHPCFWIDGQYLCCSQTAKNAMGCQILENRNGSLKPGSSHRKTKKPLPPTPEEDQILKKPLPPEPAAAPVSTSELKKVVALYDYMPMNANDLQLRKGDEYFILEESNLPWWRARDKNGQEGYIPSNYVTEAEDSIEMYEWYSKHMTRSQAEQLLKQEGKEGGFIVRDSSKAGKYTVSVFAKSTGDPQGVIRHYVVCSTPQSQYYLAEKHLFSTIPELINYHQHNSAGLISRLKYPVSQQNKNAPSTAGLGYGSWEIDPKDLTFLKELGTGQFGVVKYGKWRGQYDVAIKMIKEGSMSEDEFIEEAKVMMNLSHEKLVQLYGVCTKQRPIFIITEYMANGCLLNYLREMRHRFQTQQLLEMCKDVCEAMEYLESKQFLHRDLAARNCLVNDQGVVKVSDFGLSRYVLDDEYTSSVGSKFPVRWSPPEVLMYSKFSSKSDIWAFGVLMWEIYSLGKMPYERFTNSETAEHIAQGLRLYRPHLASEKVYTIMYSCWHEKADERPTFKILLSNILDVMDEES
Chain of Protein kinase C eta type (Homo sapiens) (P24723 whole entry, the tested form may be a part): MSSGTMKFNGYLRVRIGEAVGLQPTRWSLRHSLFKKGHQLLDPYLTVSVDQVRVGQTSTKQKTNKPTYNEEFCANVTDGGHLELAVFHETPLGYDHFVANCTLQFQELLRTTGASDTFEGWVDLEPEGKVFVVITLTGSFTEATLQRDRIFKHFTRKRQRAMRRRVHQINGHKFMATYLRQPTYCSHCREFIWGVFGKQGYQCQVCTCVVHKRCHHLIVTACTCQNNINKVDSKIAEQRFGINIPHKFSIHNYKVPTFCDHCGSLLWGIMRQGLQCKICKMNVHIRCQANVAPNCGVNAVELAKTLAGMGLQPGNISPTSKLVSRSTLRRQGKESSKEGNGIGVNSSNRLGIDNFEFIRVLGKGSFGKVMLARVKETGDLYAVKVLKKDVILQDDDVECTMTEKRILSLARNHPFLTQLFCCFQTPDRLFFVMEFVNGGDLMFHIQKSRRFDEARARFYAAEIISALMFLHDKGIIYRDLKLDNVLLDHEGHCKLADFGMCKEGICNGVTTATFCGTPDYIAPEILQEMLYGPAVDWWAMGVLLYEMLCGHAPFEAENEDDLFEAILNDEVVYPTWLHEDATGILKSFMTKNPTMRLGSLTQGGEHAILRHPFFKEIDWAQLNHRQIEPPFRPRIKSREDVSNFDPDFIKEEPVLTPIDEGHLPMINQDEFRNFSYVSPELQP

Turning to `Clc1ccc(C2(c3ccc(-c4ncnc5[nH]cnc45)cc3)CCNCC2)cc1`, the inhibition in [1] amounted to 49%; in [2], 51%.

Consider `C[C@H](CN(C)C)Oc1nc(Nc2cc3cccc(Cl)c3cn2)cnc1C#N`, for which, in experiment [3], the inhibition amounted to 0%.

Consider `c1nc(N2CCOCC2)c2nc[nH]c2n1`, for which the inhibition in experiment [4] turned out to be 78.5%.

Regarding `NCC1CN(c2ncnc3[nH]c4cnccc4c23)CCO1` (stereo unspecified), in experiment [5], the inhibition turned out to be 0%.

Regarding `NCC1CCN(c2ncnc3[nH]ccc23)CC1`, the inhibition in [6] came to 16.5%.

Regarding `COC(=O)c1cnc(Nc2cnc(C#N)cn2)cc1NCC1CCNCC1`, the inhibition in [7] came to 4.5%.

`NC1(Cc2ccc(Cl)cc2)CCN(c2ncnc3[nH]ccc23)CC1`: the inhibition in experiment [8] and in experiment [9] was 0% in each case.

Turning to `NC1CCN(c2ncnc3[nH]ccc23)CC1`, the inhibition in [10] worked out at 56.5%.

With `CNCc1ccc(-c2ncnc3[nH]cnc23)cc1`, the inhibition in experiment [11] came to 26%.

Usually inhibition stands for the percentage by which the read-out fell short of the control.
